{"source": "paper PMC8153205", "about": "(Journal of Inflammation Research, 2021)", "origin": "cited, not measured here", "test_system": "rheumatoid arthritis", "conditions": "RA clinical trials"}
{"compound": "NC(=O)c1cnc2[nH]ccc2c1N[C@@H]1[C@@H]2CC3C[C@H]1C[C@@](O)(C3)C2", "note": "[peficitinib]", "values": [{"measurement": "SUCRA for serious adverse events (safety)", "value": 0.66}]}
